Laboratory results taken from US6617350B2, “Inhibitors of aspartyl protease” (priority 1999, dated 2003).
Read-outs that look alike come from different tables or passages of the source.

Tests used:
HIV-1 (strain IIIB) = experiment: microbe, parasite or virus in culture; format: cell-based; settings: read-out: IC50
HIV-1 protease = HIV-1 protease (Human immunodeficiency virus type 1 group M subtype B, UniProt P04585); experiment: biochemical
[1] = Human immunodeficiency virus 1, IIIB, MT4, Table 12, anti-viral potency in MT-4 cells
[2] = Table 12, HIV-1 protease, read-out: Ki

Row | Structure (SMILES) | IC50 (HIV-1 (strain IIIB); [1]) [nM] | Ki (HIV-1 protease; [2]) [nM] | IC50 (HIV-1 (strain IIIB)) [nM] | IC50 (HIV-1 (strain IIIB); Human immunodeficiency virus 1, IIIB, MT4, Table 13, MT-4 cell based assay, class symbol) [nM] | Ki (HIV-1 protease) [nM]
1 | COc1ccc(S(=O)(=O)N(CC(O)C(Cc2ccccc2)NC(=O)OC2COC3OCCC23)CC(C)(C)CCCNS(C)(=O)=O)cc1 [Compound 215, (3R,3aS,6aR)hexahydrofuro[2,3-b]furan-3-yl N-((1S,2R)-1-benzyl-3-2,2-dimethyl-5-[(methylsulfonyl)amino]pentyl[(4-methoxyphenyl)sulfonyl]amino-2-hydroxypropyl)carbamate and (3S,3aR, 6aS)hexahydrofuro[2,3-b]furan-3-yl N-((1s,2R)-1-benzyl-3-2,2-dimethyl-5-[(methylsulfonyl)amino]pentyl[(4-methoxyphenyl)sulfonyl]amino-2-hydroxypropyl)carbamate] | ≤ 100 | < 1 | – | – | –
2 | CNc1cccc(S(=O)(=O)N(CC(O)C(Cc2ccccc2)NC(=O)OC2COC3OCCC23)CC(C)(C)CCCNS(C)(=O)=O)c1 [Compound 270, (3R,3aS,6aR)hexahydrofuro[2,3-b]furan-3-yl N-[(1S,2R)-1-benzyl-3-((5-[(methylsulfonyl]amino-2,2-dimethylpentyl)[3-(methylamino)phenyl]sulfonylamino)-2-hydroxypropyl]carbamate] | ≤ 100 | < 1 | – | – | –
3 | CN(C)C(=O)NCCCCC(C)(C)CN(CC(O)C(Cc1ccccc1)NC(=O)OC1COC2OCCC12)S(=O)(=O)c1ccc2c(c1)OCCO2 [Compound 251, (3R,3aS,6aR)hexahydrofuro[2,3-b]furan-3-yl N-(1S,2R)-1-benzyl-3-[(2,3-dihydro-1,4-benzodioxin-6-ylsulfonyl)(6-[(dimethylamino)carbonyl]amino-2,2-dimethylhexyl)amino]-2-hydroxypropylcarbamate] | ≤ 100 | < 1 | – | – | –
4 | CCC(CC)(CCC#N)CN(C[C@@H](O)[C@H](Cc1ccccc1)NC(=O)O[C@H]1CCOC1)S(=O)(=O)c1ccc(OC)cc1 [Compound 17, (3S)-Tetrahydro-3-furanyl N-((1S,2R)-1-benzyl-3-(4-cyano-2,2-diethylbutyl)[(4-methoxyphenyl)sulfonyl]amino-2-hydroxypropyl)carbamate] | – | < 1 | 100 to 500 | – | –
5 | COC(=O)NCCCC(C)(C)CN(C[C@@H](O)[C@H](Cc1ccccc1)NC(=O)O[C@H]1CO[C@H]2OCC[C@H]21)S(=O)(=O)c1ccc2c(c1)OCO2 [Compound 263, (3R,3aS,6aR)hexahydrofuro[2,3-b]furan-3-yl N-[(1S,2R)-3-((1,3-benzodioxol-5-ylsulfonyl)5-[(methoxycarbonyl)amino]-2,2-dimethylpentylamino)-1-benzyl-2-hydroxypropyl]carbamate] | ≤ 100 | < 1 | – | – | –
6 | CN(C)C(=O)NCCCCC(C)(C)CN(CC(O)C(Cc1ccccc1)NC(=O)OC1COC2OCCC12)S(=O)(=O)c1ccc2c(c1)OCO2 [Compound 249, (3R,3aS,6aR)hexahydrofuro[2,3-b]furan-3-yl N-(1S,2R)-3-[(1,3-benzodioxol-5-ylsulfonyl)(6-[(dimethylamino)carbonyl]amino-2,2-dimethylhexyl)amino]-1-benzyl-2-hydroxypropylcarbamate] | ≤ 100 | < 1 | – | – | –
7 | CC(C)(CCCN)CN(CC(O)C(Cc1ccccc1)NC(=O)OC1COC2OCCC12)S(=O)(=O)c1ccc2c(c1)OCO2 [Compound 257, 3R,3aS,6aR)hexahydrofuro[2,3-b]furan-3-yl N-(1S,2R)-3-[(5-amino-2,2-dimethylpentyl)(1,3-benzodioxol-5-ylsulfonyl)amino]-1-benzyl-2-hydroxypropylcarbamate] | 100 to 500 | < 1 | – | – | –
8 | CC(=O)CCC(C)(C)CN(CC(O)[C@H](Cc1ccccc1)NC(=O)OC1COC2OCCC12)S(=O)(=O)c1cccc(N(C)C)c1 (some centres unmarked) [Compound 254] | ≤ 100 | < 1 | – | – | –
9 | COc1ccc(S(=O)(=O)N(CCC#N)C[C@@H](O)[C@H](Cc2ccccc2)NC(=O)OC2COCOC2)cc1 [Compound 125] | > 1000 | < 1 | – | – | –
10 | COc1ccc(S(=O)(=O)N(CCC(C)=O)C[C@@H](O)[C@H](Cc2ccccc2)NC(=O)OC2COCOC2)cc1 [Compound 281] | 100 to 500 | 1 to 10 | – | – | –
11 | COC(=O)NCCC(C)(C)CN(CC(O)C(Cc1ccccc1)NC(=O)OC1COC2OCCC12)S(=O)(=O)c1ccc(OC)cc1 [Compound 218, (3R,3aS,6aR)hexahydrofuro[2,3-b]furan-3-yl N-((1S,2R)-1-benzyl-2-hydroxy-3-4-[(methoxycarbonyl)amino]-2,2-dimethylbutyl[(4-methoxyphenyl)sulfonyl]aminopropyl)carbamate and (3S,3aR,6aS)hexahydrofuro[2,3-b]furan-3-yl N-((1S,2R)-1-benzyl-2-hydroxy-3-4-[(methoxycarbonyl)amino]-2,2-dimethylbutyl[(4-methoxyphenyl)sulfonyl]aminopropyl)carbamate] | ≤ 100 | < 1 | – | – | –
12 | CC(C)(CCCC#N)CN(CC(O)C(Cc1ccccc1)NC(=O)OC1COC2OCCC12)S(=O)(=O)c1ccc2c(c1)OCCO2 (centres unmarked) [Compound 40] | ≤ 100 | < 1 | – | – | –
13 | CC(C)(CCC#N)CN(C[C@@H](O)[C@H](Cc1ccccc1)NC(=O)OC1COCOC1)C(=O)OCc1ccccc1 [Compound 28, (4-Cyano-2,2-dimethyl-butyl)-[(2R,3S)-3-([1,3]dioxan-5-yloxycarbonylamino)-2-hydroxy-4-phenyl-butyl]-carbamic acid benzyl ester] | 100 to 500 | < 1 | – | – | –
14 | CNc1cccc(S(=O)(=O)N(C[C@@H](O)[C@H](Cc2ccccc2)NC(=O)O[C@H]2CO[C@H]3OCC[C@H]32)CC(C)(C)CCCCN)c1 [Compound 241, (3R,3aS,6aR)hexahydrofuro[2,3-b]furan-3-yl N-[(1S,2R)-3-((6-amino-2,2-dimethylhexyl)[3-(methylamino)phenyl]sulfonylamino)-1-benzyl-2-hydroxypropyl]carbamate] | 100 to 500 | < 1 | – | – | –
15 | CC(C)(CCC#N)CN(CC(O)[C@H](Cc1ccccc1)NC(=O)OC1COC2OCCC12)S(=O)(=O)c1cccc(N)c1 (stereo partly drawn) [Compound 10, (3S,3aR,6aS)-Hexahydrofuro[2,3-b]furan-3-yl N-((1S,2R)-3-[(3-aminophenyl)sulfonyl](4-cyano-2,2-dimethylbutyl)-amino-1-benzyl-2-hydroxypropyl)carbamate] | ≤ 100 | < 1 | – | – | –
16 | CC(C)(CCCC#N)CN(CC(O)C(Cc1ccccc1)NC(=O)OC1COC2OCCC12)S(=O)(=O)c1ccc2c(c1)OCO2 (centres unmarked) [Compound 39] | ≤ 100 | < 1 | – | 1 to 10 | –
17 | CNC(=O)OCCC(C)(C)CN(CC(O)[C@H](Cc1ccccc1)NC(=O)OC1COC2OCCC12)S(=O)(=O)c1ccc(OC)cc1 (stereo partly drawn) [Compound 221, (3R,3aS,6aR)-Hexahydrofuro[2,3-b]furan-3-yl N-((1S,2R)-1-benzyl-3-(2,2-dimethyl-4-N′-methylcarbamoyloxybutyl)[(4-methoxyphenyl)sulfonyl]amino-2-hydroxypropyl)carbamate] | ≤ 100 | < 1 | – | – | –
18 | COc1ccc(S(=O)(=O)N(CC(O)[C@H](Cc2ccccc2)NC(=O)OC2COC3OCCC23)CC(C)(C)CCOC(N)=O)cc1 (stereo partly drawn) [Compound 235, (3R,3aS,6aR)-Hexahydrofuro[2,3-b]furan-3-yl N-((1S,2R)-1-benzyl-3-(4-carbamoyloxy-2,2-dimethylbutyl)[(4-methoxyphenyl)sulfonyl]amino-2-hydroxypropyl)carbamate] | ≤ 100 | < 1 | – | – | –
19 | COc1ccc(S(=O)(=O)N(C[C@@H](O)[C@H](Cc2ccccc2)NC(=O)OC2COCOC2)CC(C)(C)CCC#N)cc1 [Compound 19, {(1S,2R)-1-Benzyl-3-[(4-cyano-2,2-dimethyl-butyl)-(4-methoxy-benzenesulfonyl)-amino]-2-hydroxy-propyl}-carbamic acid[1,3]dioxan-5-yl ester] | 100 to 500 | < 1 | – | – | –
20 | COc1ccc(S(=O)(=O)N(CC(O)C(Cc2ccccc2)NC(=O)OC2COC3OCCC23)CC(C)(C)CCNS(C)(=O)=O)cc1 [Compound 220, (3R,3aS,6aR)hexahydrofuro[2,3-b]furan-3-yl N-((1S,2R)-1-benzyl-3-2,2-dimethyl-4-[(methylsulfonyl)amino]butyl[(4-methoxyphenyl)sulfonyl]amino-2-hydroxypropyl)carbamate and (3S,3aR,6aS)hexahydrofuro[2,3-b]furan-3-yl N-((1S,2R)-1-benzyl-3-2,2-dimethyl-4-[(methylsulfonyl)amino]butyl[(4-methoxyphenyl)sulfonyl]amino-2-hydroxypropyl)carbamate] | ≤ 100 | – | – | – | < 1
21 | COc1ccc(S(=O)(=O)N(C[C@@H](O)[C@H](Cc2ccccc2)NC(=O)O[C@H]2CCOC2)CC(C)(C)CCCC(C)=O)cc1 [Compound 209] | 100 to 500 | < 1 | – | – | –
22 | COc1ccc(S(=O)(=O)N(CC(O)C(Cc2ccccc2)NC(=O)OC2COC3OCCC23)CC(C)(C)CCCNC(=O)N2CCOCC2)cc1 [Compound 237, (3R,3aS,6aR)hexahydrofuro[2,3-b]furan-3-yl N-((1S,2R)-1-benzyl-3-2,2-dimethyl-5-[(morpholinocarbonyl)amino]pentyl[(4-methoxyphenyl)sulfonyl]amino-2-hydroxypropyl)carbamate and 3S,3aR,6aS)hexahydrofuro[2,3-b]furan-3-yl N-((1S,2R)-1-benzyl-3-2,2-dimethyl-5-[(morpholinocarbonyl)amino]pentyl[(4-methoxyphenyl)sulfonyl]amino-2-hydroxypropyl)carbamate] | ≤ 100 | < 1 | – | – | –
23 | C/C(CCC(C)(C)CN(CC(O)[C@H](Cc1ccccc1)NC(=O)OC1COC2OCCC12)S(=O)(=O)c1ccc2c(c1)OCO2)=N\O (stereo partly drawn) [Compound 260, (3R,3aS,6aR)-Hexahydrofuro[2,3-b]furan-3-yl N-((1S,2R)-1-benzyl-3-(2,2-dimethyl-5-hydroxyiminohexyl)[(3,4-methylenedioxyphenyl)sulfonyl]amino-2-hydroxypropyl)carbamate] | ≤ 100 | < 1 | – | – | –
